From publication PMC6345968, “Structural basis for species-selective targeting of Hsp90 in a pathogenic fungus” (Nature Communications, 2019)
pEC50: −log10 of the molar value. Like-named read-outs stand apart in the source and are kept apart here.

Columns and labels:
[1] = target: T1, Hsp90 in C. albicans (SC5314) lysate (Candida albicans, UniProt P46598); test: biochemical; assay type: binding; conditions: for FP signal: raw
T1 construct: endogenous in cells; host or cells: C. albicans SC5314 whole-cell lysate

Hsp90 in HEPG2 lysate = conditions: for FP signal: raw
[2] = SC5314 lysate, 0.457 nM compound
[3] = SC5314 lysate, 1.372 nM compound
[4] = SC5314 lysate, 4.115 nM compound
[5] = SC5314 lysate, 12.346 nM compound
[6] = SC5314 lysate, 37.037 nM compound
[7] = SC5314 lysate, 111.111 nM compound
[8] = SC5314 lysate, 333.333 nM compound
[9] = SC5314 lysate, 1000 nM compound
[10] = SC5314 lysate, 3000 nM compound

T1 sequence (P46598 whole entry): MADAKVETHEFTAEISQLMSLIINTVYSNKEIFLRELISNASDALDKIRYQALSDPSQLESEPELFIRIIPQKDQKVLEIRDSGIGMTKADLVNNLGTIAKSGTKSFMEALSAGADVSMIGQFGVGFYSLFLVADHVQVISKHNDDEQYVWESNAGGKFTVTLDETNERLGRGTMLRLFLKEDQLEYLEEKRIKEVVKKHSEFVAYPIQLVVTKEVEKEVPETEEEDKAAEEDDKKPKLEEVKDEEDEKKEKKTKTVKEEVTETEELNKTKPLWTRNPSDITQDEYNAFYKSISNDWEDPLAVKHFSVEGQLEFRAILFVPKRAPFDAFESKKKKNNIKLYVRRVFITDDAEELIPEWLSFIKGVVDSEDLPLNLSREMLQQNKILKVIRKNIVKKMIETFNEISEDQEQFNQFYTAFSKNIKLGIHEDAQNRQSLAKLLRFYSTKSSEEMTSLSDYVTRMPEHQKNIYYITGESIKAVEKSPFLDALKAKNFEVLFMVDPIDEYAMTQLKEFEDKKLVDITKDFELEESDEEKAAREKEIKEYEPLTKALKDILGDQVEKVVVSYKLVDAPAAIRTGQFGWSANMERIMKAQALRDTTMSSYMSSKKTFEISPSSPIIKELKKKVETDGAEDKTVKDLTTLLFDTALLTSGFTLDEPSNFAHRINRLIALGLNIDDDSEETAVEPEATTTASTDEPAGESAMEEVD

Compound: Cc1ccc(CON=C2C=CC=CC3OC3CC(C)OC(=O)c3c(O)cc(O)c(Cl)c3C2)cc1 (mixture of isomers) [compound 218]
- Ratio re. GdA ([1]; EC50 relative to GdA, SC5314 lysate): 57.1252
- FP signal (raw) ([1]; SC5314 lysate, 0.457 nM): 202
- FP signal relative to 0 nM [1, 2]: 0.9806
- FP signal [1, 2]: 202
- FP signal (raw) ([1]; SC5314 lysate, 1.372 nM): 199
- FP signal relative to 0 nM [1, 3]: 0.966
- FP signal [1, 3]: 199
- FP signal (raw) ([1]; SC5314 lysate, 4.115 nM): 200
- FP signal relative to 0 nM [1, 4]: 0.9709
- FP signal [1, 4]: 200
- FP signal (raw) ([1]; SC5314 lysate, 12.346 nM): 199
- FP signal relative to 0 nM [1, 5]: 0.966
- FP signal [1, 5]: 199
- FP signal (raw) ([1]; SC5314 lysate, 37.037 nM): 200
- FP signal relative to 0 nM [1, 6]: 0.9709
- FP signal [1, 6]: 200
- FP signal (raw) ([1]; SC5314 lysate, 111.111 nM): 197
- FP signal relative to 0 nM [1, 7]: 0.9563
- FP signal [1, 7]: 197
- FP signal (raw) ([1]; SC5314 lysate, 333.333 nM): 171
- FP signal relative to 0 nM [1, 8]: 0.8301
- FP signal [1, 8]: 171
- FP signal (raw) ([1]; SC5314 lysate, 1000 nM): 108
- FP signal relative to 0 nM [1, 9]: 0.5243
- FP signal [1, 9]: 108
- FP signal (raw) ([1]; SC5314 lysate, 3000 nM): 45
- FP signal relative to 0 nM [1, 10]: 0.2184
- FP signal [1, 10]: 45
- HepG2/SC5314 ([1]; ratio of GdA-normalized EC50s, human over fungal lysate): 1.973
- HepG2/SC5314 ([1]; ratio of GdA-relative EC50 ratios, HepG2 over SC5314): 1.973
- Ratio rel. GdA (HepG2) (Hsp90 in HEPG2 lysate; EC50 / EC50 of GdA in HepG2 lysate): 112.714
- Ratio rel. GdA (HepG2) (Hsp90 in HEPG2 lysate; EC50 relative to GdA, HEPG2 lysate): 112.714
- FP signal, Fxn Control (Hsp90 in HEPG2 lysate; HEPG2 lysate, log concentration 0.137354 (1.372 nM)): 0.9811
- FP signal, Fxn Control (Hsp90 in HEPG2 lysate; HEPG2 lysate, log concentration 0.61437 (4.115 nM)): 0.9953
- FP signal, Fxn Control (Hsp90 in HEPG2 lysate; HEPG2 lysate, log concentration 1.09153 (12.346 nM)): 0.9858
- FP signal, Fxn Control (Hsp90 in HEPG2 lysate; HEPG2 lysate, log concentration 1.56864 (37.037 nM)): 0.9906
- FP signal, Fxn Control (Hsp90 in HEPG2 lysate; HEPG2 lysate, log concentration 2.04576 (111.111 nM)): 0.9811
- FP signal, Fxn Control (Hsp90 in HEPG2 lysate; HEPG2 lysate, log concentration 2.52288 (333.333 nM)): 0.9575
- FP signal, Fxn Control (Hsp90 in HEPG2 lysate; HEPG2 lysate, log concentration 3 (1000 nM)): 0.8066
- FP signal, Fxn Control (Hsp90 in HEPG2 lysate; HEPG2 lysate, log concentration 3.47712 (3000 nM)): 0.4009
- FP signal, Fxn Control (Hsp90 in HEPG2 lysate; HEPG2 lysate, log concentration -0.340084 (0.457 nM)): 0.9906
- FP signal (raw) (Hsp90 in HEPG2 lysate; HepG2 lysate, 0.457 nM): 210
- FP signal (Hsp90 in HEPG2 lysate; HepG2 lysate, 0.457 nM compound): 210
- FP signal (raw) (Hsp90 in HEPG2 lysate; HepG2 lysate, 1.372 nM): 208
- FP signal (Hsp90 in HEPG2 lysate; HepG2 lysate, 1.372 nM compound): 208
- FP signal (raw) (Hsp90 in HEPG2 lysate; HepG2 lysate, 4.115 nM): 211
- FP signal (Hsp90 in HEPG2 lysate; HepG2 lysate, 4.115 nM compound): 211
- FP signal (raw) (Hsp90 in HEPG2 lysate; HepG2 lysate, 12.346 nM): 209
- FP signal (Hsp90 in HEPG2 lysate; HepG2 lysate, 12.346 nM compound): 209
- FP signal (raw) (Hsp90 in HEPG2 lysate; HepG2 lysate, 37.037 nM): 210
- FP signal (Hsp90 in HEPG2 lysate; HepG2 lysate, 37.037 nM compound): 210
- FP signal (raw) (Hsp90 in HEPG2 lysate; HepG2 lysate, 111.111 nM): 208
- FP signal (Hsp90 in HEPG2 lysate; HepG2 lysate, 111.111 nM compound): 208
- FP signal (raw) (Hsp90 in HEPG2 lysate; HepG2 lysate, 333.333 nM): 203
- FP signal (Hsp90 in HEPG2 lysate; HepG2 lysate, 333.333 nM compound): 203
- FP signal (raw) (Hsp90 in HEPG2 lysate; HepG2 lysate, 1000 nM): 171
- FP signal (Hsp90 in HEPG2 lysate; HepG2 lysate, 1000 nM compound): 171
- FP signal (raw) (Hsp90 in HEPG2 lysate; HepG2 lysate, 3000 nM): 85
- FP signal (Hsp90 in HEPG2 lysate; HepG2 lysate, 3000 nM compound): 85
- pEC50 (Hsp90 in HEPG2 lysate; HepG2 lysate, oxime panel experiment 220817): 5.60
